According to patent US5521175A, “Benzodiazepine derivatives” (Merck Sharp & Dohme Ltd., priority 1992, dated 1996):
pIC50: −log10 of the molar value. Counter-ions that a name gives are not always drawn. Like-named read-outs stand apart in the source and are kept apart here.

Key:
CCK-B receptor = target: T1, CCK-B receptor (Cavia porcellus, UniProt H0VZC5); assay: displacement of ^125 I-CCK from guinea pig brain (CCK-B receptor binding); conditions: guinoa pig brain (CCK-B)
T1 construct: guinoa pig brain (CCK-B); from tissue; host or cells: guinea pig brain
T1 sequence (H0VZC5 1-426): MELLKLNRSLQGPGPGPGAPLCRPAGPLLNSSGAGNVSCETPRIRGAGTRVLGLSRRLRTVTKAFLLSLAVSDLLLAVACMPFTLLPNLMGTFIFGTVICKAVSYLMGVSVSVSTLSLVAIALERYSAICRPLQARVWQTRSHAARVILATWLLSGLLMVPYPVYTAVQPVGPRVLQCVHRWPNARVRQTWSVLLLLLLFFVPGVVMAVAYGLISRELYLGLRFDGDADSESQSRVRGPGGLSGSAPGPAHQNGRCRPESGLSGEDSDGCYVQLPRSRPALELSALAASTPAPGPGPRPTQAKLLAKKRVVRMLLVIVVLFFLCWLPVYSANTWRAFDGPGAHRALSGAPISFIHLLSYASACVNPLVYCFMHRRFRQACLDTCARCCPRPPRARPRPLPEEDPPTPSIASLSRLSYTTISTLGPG
Protocol: (§1) The CCK-A and CCK-B antagonising activity of the compounds described herein was evaluated using the assays described in published European patent application no. […] The method essentially involves determining the concentration of the test compound required to displace 50% of the specific ^125 I--CCK from rat pancreas (CCK-A) or guinoa pig brain (CCK-B).

CCK-A receptor = target: T2, CCK-A receptor (Rattus norvegicus, UniProt P30551); assay: displacement of ^125 I-CCK from rat pancreas (CCK-A receptor binding)
T2 sequence (P30551 1-444): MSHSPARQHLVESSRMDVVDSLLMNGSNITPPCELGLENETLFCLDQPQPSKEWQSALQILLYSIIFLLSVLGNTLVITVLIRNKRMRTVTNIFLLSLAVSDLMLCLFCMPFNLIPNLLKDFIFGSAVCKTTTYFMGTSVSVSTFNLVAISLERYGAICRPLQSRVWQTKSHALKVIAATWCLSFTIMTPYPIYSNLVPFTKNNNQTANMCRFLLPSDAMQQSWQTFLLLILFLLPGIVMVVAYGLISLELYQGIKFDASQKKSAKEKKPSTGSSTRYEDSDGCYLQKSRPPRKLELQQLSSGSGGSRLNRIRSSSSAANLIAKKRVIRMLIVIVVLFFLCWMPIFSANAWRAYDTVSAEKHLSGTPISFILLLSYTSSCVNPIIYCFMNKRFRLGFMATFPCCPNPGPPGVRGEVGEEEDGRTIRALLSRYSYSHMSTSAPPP
Protocol: as §1

[1] = read-out: CCK receptor binding IC50, ^125 I-CCK Brain
[2] = ^125 I-CCK, rat pancreas (CCK-A), read-out: CCK receptor binding IC50, ^125 I-CCK Pancreas

SMILES | pIC50 (CCK-B receptor; [1]) | pIC50 (CCK-A receptor; [2]) | pIC50 (CCK-B receptor; CCK receptor binding IC50, ^125 I-CCK Brain) | pIC50 (CCK-A receptor)
CCCN1C(=O)C(NC(=O)Nc2cccc(C)c2)N=C(C2CCCCN2)c2ccccc21 (single isomer, unassigned) [Example 1, N-[2,3-Dihydro-2-oxo-5-(piperidin-2-yl)-1-(1-propyl)-1H-1,4-benzodiazepin-3-yl]-N'-[3-methylphenyl]urea hydrochloride] | 7.38 | < 5.52 | – | –
CCCN1C(=O)C(NC(=O)Nc2cccc(C)c2)N=C(C2CCCCN2)c2ccccc21 (single isomer, unassigned) [Example 2, N-[2,3-Dihydro-2-oxo-5-(piperidin-2-yl)-1-(1-propyl)-1H-1,4,benzodiazepin-3-yl]-N'-[3-methylphenylurea hydrochloride] | 7.44 | < 5.52 | – | –
CCCN1C(=O)C(NC(=O)Nc2cccc(C)c2)N=C(C2CCCCN2C)c2ccccc21 (single isomer, unassigned) [Example 3, N-[2,3-Dihydro-5-(1-methylpiperidin-2-yl)-2-oxo-1-(1propyl)-1H-1,4-benzodiazepin-3-yl]-N'-[3-methylphenyl]urea hydrochloride] | – | – | 7.27 | –
CCCN1C(=O)C(NC(=O)Nc2cccc(C)c2)N=C(C2CCC(C)(C)CCN2C)c2ccccc21 (single isomer, unassigned) [Example 5, N-[2,3-Dihydro-5-(2,3,4,5,6-hexahydro-1,5,5,-trimethyl-1H-azepin-2-yl)-2-oxo-1-(1-propyl)-1H-1,4-benzodiazepin-3-yl]-N'-[3-methylphenyl]urea hydrochloride] | 7.59 | – | – | –
Cc1cccc(NC(=O)NC2N=C(C3CCC(C)(C)CCN3)c3ccccc3N(C)C2=O)c1 (single isomer, unassigned) [Example 6, N-[2,3-Dihydro-5-(5,5-dimethyl-2,3,4,5,6-hexahydro-1H-azepin-2-yl)-1-methyl-2-oxo-1H-1,4-benzodiazepin-3-yl]-N'-[3-methylphenyl]urea hydrochloride] | 7.92 | – | – | –
CCCN1C(=O)C(NC(=O)Nc2ccc3c(c2)CCC3)N=C(C2CC(C)(C)CCN2)c2ccccc21 (single isomer, unassigned) [Example 12, N-[2,3-Dihydro-5-(4,4-dimethylpiperidin-2-yl)-2-oxo-1-(1-propyl)-1H, 1,4-benzodiazepin-3-yl-N'-[5-indanyl]urea hydrochloride] | – | – | – | 5.49

Continued, in another order:

pIC50 (CCK-B receptor; [1]) | pIC50 (CCK-A receptor; [2]) | SMILES | pIC50 (CCK-B receptor; CCK receptor binding IC50, ^125 I-CCK Brain) | pIC50 (CCK-A receptor)
8.63 | 5.19 | CN1C(=O)C(NC(=O)Nc2ccc3c(c2)CCC3)N=C(C2CCC(C)(C)CCN2)c2ccccc21 (single isomer, unassigned) [Example 7, N-[2,3-Dihydro-5-(5,5-dimethyl-2,3,4,5,6-hexahydro-1H-azepin-2-yl)-1-methyl-2-oxo-1H-1,4-benzodiazepin-3-yl]-N'-[5-indanyl]urea hydrochloride] | – | –
8.83 | – | CCCN1C(=O)C(NC(=O)Nc2cccc(C)c2)N=C(C2CC(C)(C)CCN2)c2ccccc21 (single isomer, unassigned) [Example 8, N-[2,3-Dihydro-5-(4,4-dimethylpiperidin-2-yl)-2-oxo-1-(1-propyl)-1H-1,4-benzodiazepin-3-yl]-N'-[3-methylphenyl]urea hydrochloride] | – | –
6.54 | 5.57 | Cc1cccc(NC(=O)NC2N=C(C3CCNCC3)c3ccccc3N(CC(C)C)C2=O)c1 (centres unmarked) [Example 9, N-[2,3-Dihydro-1-(2-methylpropyl)-2-oxo-5-(piperidin-4-yl)-1H-1,4-benzodiazepin-3-yl]-N'-[3-methylpheny]urea trifluoroacetic acid salt] | – | –
6.62 | 5.53 | Cc1cccc(NC(=O)NC2N=C(C3CCN(C)CC3)c3ccccc3N(CC(C)C)C2=O)c1 (centres unmarked) [Example 10, N-[2,3-Dihydro-5-(N-methylpiperidin-4-yl)-1-(2-methylpropyl)-2-oxo-1H-1,4-benzodiazepin-3-yl]-N'-[3-methylphenyl]urea hydrochloric acid salt] | – | –
7.26 | < 5.52 | CC(C)CN1C(=O)C(NC(=O)Nc2cccc(-c3nnn[nH]3)c2)N=C(C2CCNCC2)c2ccccc21 (centres unmarked) [Example 11, N-[2,3-Dihydro-1-(2-methylpropyl)-2-oxo-5-(piperidin-4-yl)-1H-1,4-benzodiazepin-3-yl]-N'-[3-(tetrazol-5-yl)phenyl]urea, trifluoroacetic acid salt] | – | –
